Experiments:
[1] = target: T1, Rho-associated protein kinase 2 (Homo sapiens, UniProt O75116); test: Inhibition of ROCK2
[2] = Selectivity for ROCK2 over PKA
[3] = Inhibition of PKA
[4] = target: T1, Rho-associated protein kinase 2
Description: Inhibition of ROCK2 assessed as myosin light chain phosphorylation by cell-based assay

[5] = Metabolic stability in human liver microsomes assessed as half life; assay type: ADME, Microsome
[6] = Metabolic stability in rat liver microsomes assessed as half life; assay type: ADME, Microsome
[7] = target: Rho-associated protein kinase 1 (Homo sapiens, UniProt Q13464); test: Inhibition of ROCK1
[8] = target: Mitogen-activated protein kinase 10 (Homo sapiens, UniProt P53779); test: Inhibition of JNK3
[9] = Inhibition of p38
[10] = target: Serine/threonine-protein kinase MRCK alpha (Homo sapiens, UniProt Q5VT25); test: Inhibition of MRCKalpha
[11] = Oral bioavailability in rat; assay type: ADME, organism-based; conditions: in vivo
[12] = Clearance in rat; assay type: ADME, organism-based; conditions: in vivo

Sequence of Serine/threonine-protein kinase MRCK alpha (Q5VT25 whole entry): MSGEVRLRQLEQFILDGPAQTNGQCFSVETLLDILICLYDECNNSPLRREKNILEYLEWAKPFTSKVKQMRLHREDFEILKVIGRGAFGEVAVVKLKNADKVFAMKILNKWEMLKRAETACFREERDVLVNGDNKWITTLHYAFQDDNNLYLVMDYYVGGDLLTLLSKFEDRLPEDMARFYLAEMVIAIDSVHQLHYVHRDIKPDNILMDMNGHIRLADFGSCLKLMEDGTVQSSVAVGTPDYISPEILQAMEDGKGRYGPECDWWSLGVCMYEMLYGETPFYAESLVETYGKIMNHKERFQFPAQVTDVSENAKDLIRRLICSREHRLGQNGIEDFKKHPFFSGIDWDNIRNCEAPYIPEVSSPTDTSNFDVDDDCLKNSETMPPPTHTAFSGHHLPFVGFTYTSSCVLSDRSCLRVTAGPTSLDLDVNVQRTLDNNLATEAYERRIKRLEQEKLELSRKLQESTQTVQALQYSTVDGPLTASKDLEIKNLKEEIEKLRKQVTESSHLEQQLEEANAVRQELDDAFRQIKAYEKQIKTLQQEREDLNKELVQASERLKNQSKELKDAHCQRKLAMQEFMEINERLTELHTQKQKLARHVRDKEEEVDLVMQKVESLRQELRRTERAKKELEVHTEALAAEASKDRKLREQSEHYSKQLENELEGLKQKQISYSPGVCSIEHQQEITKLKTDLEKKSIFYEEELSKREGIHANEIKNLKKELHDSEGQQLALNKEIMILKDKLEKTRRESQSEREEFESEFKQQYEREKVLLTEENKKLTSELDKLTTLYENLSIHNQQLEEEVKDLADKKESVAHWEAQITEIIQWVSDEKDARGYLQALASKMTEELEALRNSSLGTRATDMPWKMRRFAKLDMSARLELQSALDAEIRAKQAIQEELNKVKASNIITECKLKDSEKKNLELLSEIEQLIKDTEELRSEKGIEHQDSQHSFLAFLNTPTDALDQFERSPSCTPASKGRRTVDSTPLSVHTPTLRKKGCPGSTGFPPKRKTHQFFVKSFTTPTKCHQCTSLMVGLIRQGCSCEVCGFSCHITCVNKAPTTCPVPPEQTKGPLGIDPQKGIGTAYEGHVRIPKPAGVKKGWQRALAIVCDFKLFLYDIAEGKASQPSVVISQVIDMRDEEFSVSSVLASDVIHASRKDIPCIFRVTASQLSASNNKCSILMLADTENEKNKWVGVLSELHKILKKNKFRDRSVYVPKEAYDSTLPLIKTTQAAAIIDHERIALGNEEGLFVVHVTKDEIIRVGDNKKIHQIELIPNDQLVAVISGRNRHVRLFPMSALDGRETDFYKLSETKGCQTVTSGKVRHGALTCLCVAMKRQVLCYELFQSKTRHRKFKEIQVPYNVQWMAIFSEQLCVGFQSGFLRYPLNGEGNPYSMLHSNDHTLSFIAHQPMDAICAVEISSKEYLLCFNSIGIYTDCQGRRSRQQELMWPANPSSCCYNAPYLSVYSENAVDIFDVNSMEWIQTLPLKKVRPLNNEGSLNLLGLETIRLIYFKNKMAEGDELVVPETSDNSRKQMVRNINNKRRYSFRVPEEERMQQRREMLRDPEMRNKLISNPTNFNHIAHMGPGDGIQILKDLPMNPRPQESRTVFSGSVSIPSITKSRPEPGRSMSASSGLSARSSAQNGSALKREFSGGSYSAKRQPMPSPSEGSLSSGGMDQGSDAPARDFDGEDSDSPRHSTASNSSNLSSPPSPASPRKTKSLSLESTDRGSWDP
Sequence of Mitogen-activated protein kinase 10 (P53779 whole entry): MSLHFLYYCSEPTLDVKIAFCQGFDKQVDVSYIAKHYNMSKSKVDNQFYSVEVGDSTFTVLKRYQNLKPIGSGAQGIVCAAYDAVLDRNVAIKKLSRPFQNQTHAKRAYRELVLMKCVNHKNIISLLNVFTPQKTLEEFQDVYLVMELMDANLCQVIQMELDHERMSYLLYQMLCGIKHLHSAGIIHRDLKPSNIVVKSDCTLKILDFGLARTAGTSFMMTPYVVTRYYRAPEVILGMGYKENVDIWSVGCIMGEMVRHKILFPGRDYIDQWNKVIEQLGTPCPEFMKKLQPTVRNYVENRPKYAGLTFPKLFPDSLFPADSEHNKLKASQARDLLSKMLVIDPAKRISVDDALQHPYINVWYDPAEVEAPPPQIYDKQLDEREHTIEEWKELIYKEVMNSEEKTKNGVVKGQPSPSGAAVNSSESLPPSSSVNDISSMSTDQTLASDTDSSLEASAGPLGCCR
Sequence of Rho-associated protein kinase 1 (Q13464 whole entry): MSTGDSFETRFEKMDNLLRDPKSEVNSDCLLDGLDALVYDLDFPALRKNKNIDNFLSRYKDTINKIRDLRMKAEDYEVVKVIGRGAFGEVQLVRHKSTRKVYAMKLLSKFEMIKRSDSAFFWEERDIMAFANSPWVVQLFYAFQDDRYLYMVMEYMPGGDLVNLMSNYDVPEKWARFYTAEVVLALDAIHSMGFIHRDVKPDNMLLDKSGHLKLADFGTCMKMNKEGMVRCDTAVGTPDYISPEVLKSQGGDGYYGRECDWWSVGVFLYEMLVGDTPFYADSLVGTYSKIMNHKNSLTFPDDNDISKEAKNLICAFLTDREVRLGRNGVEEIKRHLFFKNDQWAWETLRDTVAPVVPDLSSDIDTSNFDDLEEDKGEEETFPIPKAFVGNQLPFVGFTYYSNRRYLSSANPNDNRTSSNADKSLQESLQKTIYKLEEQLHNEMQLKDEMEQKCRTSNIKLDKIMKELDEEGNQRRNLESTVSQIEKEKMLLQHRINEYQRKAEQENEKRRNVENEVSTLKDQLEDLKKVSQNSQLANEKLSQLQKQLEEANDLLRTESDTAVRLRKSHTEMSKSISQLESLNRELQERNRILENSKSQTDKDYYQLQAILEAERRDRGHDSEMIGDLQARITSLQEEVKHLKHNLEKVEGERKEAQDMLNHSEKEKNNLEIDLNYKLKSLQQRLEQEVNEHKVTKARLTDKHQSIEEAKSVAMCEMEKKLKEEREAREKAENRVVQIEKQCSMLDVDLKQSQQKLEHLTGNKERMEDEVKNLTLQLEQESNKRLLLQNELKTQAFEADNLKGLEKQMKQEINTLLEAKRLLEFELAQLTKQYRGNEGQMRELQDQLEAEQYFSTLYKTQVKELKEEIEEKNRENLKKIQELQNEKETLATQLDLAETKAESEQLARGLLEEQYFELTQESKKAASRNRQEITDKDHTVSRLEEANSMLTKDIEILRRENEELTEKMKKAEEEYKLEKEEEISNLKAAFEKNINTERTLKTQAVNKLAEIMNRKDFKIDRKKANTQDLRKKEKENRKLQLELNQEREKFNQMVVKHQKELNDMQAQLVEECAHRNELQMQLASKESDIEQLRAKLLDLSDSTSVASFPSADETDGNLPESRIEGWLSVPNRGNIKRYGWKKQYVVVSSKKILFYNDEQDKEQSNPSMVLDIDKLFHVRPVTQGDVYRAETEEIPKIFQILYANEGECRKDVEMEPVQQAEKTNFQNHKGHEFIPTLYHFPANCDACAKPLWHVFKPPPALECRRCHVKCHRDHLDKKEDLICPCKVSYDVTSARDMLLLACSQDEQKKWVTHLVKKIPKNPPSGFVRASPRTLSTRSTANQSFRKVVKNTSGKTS
T1 sequence (O75116 whole entry): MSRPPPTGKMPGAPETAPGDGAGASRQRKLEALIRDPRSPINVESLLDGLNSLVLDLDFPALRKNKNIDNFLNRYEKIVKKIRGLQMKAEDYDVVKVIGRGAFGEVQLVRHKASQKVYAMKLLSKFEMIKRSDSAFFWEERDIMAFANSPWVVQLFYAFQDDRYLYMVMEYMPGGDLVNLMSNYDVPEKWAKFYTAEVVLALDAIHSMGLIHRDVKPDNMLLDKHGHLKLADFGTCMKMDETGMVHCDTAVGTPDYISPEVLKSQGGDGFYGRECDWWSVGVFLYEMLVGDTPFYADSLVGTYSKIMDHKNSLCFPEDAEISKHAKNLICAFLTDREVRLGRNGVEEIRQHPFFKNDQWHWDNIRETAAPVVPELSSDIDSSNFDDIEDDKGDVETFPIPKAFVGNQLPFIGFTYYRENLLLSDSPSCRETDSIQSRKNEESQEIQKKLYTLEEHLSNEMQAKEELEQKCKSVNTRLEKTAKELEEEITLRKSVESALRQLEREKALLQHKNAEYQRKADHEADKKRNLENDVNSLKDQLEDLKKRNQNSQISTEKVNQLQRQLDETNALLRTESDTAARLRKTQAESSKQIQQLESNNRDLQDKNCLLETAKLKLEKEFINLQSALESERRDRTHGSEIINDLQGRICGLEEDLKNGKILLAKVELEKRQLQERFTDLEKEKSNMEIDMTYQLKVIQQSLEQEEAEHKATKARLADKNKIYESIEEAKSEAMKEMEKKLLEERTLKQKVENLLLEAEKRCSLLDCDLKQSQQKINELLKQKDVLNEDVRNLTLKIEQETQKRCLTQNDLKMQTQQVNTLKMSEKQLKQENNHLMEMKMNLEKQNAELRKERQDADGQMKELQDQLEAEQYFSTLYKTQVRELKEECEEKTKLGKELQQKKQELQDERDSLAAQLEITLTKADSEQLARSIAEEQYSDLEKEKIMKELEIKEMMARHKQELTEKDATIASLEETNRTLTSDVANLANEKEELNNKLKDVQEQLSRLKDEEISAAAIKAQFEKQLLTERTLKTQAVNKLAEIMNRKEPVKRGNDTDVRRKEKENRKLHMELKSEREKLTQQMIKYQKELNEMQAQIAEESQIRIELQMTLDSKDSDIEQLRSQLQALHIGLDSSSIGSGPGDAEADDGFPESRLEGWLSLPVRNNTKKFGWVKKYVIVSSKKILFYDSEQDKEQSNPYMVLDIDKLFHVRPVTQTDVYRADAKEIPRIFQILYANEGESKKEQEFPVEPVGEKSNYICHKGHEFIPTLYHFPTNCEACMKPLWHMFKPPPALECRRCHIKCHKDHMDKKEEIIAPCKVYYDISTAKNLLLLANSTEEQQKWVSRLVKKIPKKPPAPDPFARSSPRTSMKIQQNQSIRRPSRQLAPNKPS

Compound	IC50 [1] [nM]	Selectivity ratio [2]	IC50 [3] [nM]	IC50 [4] [nM]	other results
Nc1nccc(-c2ccc3nc(C4COc5ccccc5C4)sc3c2)n1 (centres undefined)	9	17	156	1500	half-life [5]: 47 min; half-life [6]: 23 min
Cc1n[nH]cc1-c1ccc2nc(C3COc4ccccc4C3)sc2c1 (centres undefined)	25		404		
CN(C)CCCNC(=O)c1ccc2c(c1)CC(c1nc3ccc(-c4cn[nH]c4)cc3s1)CO2 (centres undefined)	0.9	847	765	< 4	IC50 [7]: 2 nM; half-life [5]: 34 min; IC50 [8]: 5460 nM; IC50 [9]: > 20000 nM; IC50 [10]: 9550 nM
c1ccc2c(c1)CC(c1nc3c(OCCC4CCOC4)cc(-c4cn[nH]c4)cc3s1)CO2 (centres undefined)	500		> 5000		
COc1cc(-c2cn[nH]c2)cc2sc(C3COc4ccccc4C3)nc12 (centres undefined)	32		> 5000	1240	
COc1cccc(CNC(=O)c2nc3ccc(-c4cn[nH]c4)cc3s2)c1	18	300	5290	> 2700	
c1ccc2c(c1)CC(c1nc3c(OCCN4CCOCC4)cc(-c4cn[nH]c4)cc3s1)CO2 (centres undefined)	314		> 5000		
COc1ccc2c(c1)CC(c1nc3ccc(-c4cn[nH]c4)cc3s1)CO2 (centres undefined)	45		> 20000	> 2700	
COc1cccc(CN(C(=O)c2nc3ccc(-c4cn[nH]c4)cc3s2)C2CC2)c1	94		19600		
CCN(Cc1cccc(OC)c1)C(=O)c1nc2ccc(-c3cn[nH]c3)cc2s1	26		16300	455	IC50 [7]: 180 nM; IC50 [8]: > 20000 nM; IC50 [9]: > 20000 nM; IC50 [10]: 7860 nM
COc1cccc(CN(CCN(C)C)C(=O)c2nc3ccc(-c4cn[nH]c4)cc3s2)c1	0.4	> 100	45	< 6	bioavailability [11]: 0%; IC50 [7]: 3.5 nM; half-life [5]: 15 min; IC50 [8]: 13800 nM; clearance [12]: 50 mL/min/kg; IC50 [9]: > 20000 nM; IC50 [10]: 247 nM
c1ccc2c(c1)CC(c1nc3ccc(-c4cn[nH]c4)cc3s1)CO2 (centres undefined)	11	30	341	1550	
Fc1ccc2c(c1)CC(c1nc3ccc(-c4cn[nH]c4)cc3s1)CO2 (centres undefined)	38		1930	1480	
O=C(NCc1cccc(F)c1)c1nc2ccc(-c3cn[nH]c3)cc2s1	72		2680		
O=C(NCc1ccccc1)c1nc2ccc(-c3cn[nH]c3)cc2s1	53		4640		
COC(=O)c1ccc2c(c1)CC(c1nc3ccc(-c4cn[nH]c4)cc3s1)CO2 (centres undefined)	59		> 5000	1480	
CN(C)CCOc1cc(-c2cn[nH]c2)cc2sc(C3COc4ccccc4C3)nc12 (centres undefined)	66	> 75	> 5000	365	
CN(C)CCNC(=O)c1ccc2c(c1)CC(c1nc3ccc(-c4cn[nH]c4)cc3s1)CO2 (centres undefined)	7	83	582	20	half-life [5]: 35 min
c1ccc2c(c1)CC(c1nc3ccc(-c4ccncc4)cc3s1)CO2 (centres undefined)	42	25	1100		
Cc1cc(-c2ccc3nc(C4COc5ccccc5C4)sc3c2)ccn1 (centres undefined)	1200		7990		
Cc1ccc2c(c1)CC(c1nc3ccc(-c4cn[nH]c4)cc3s1)CO2 (centres undefined)	93		> 20000		
COCCN(Cc1cccc(OC)c1)C(=O)c1nc2ccc(-c3cn[nH]c3)cc2s1	10		> 20000	871	
Fc1cc(-c2cn[nH]c2)cc2sc(C3COc4ccccc4C3)nc12 (centres undefined)	14	43	644	> 2700	
Clc1ccc2c(c1)CC(c1nc3ccc(-c4cn[nH]c4)cc3s1)CO2 (centres undefined)	75		1780		
Fc1cc2nc(C3COc4ccccc4C3)sc2cc1-c1cn[nH]c1 (centres undefined)	47		537	> 2700	
COc1cccc(CN(C)C(=O)c2nc3ccc(-c4cn[nH]c4)cc3s2)c1	59		> 20000		
CN(C)CCN(C)c1cc(-c2cn[nH]c2)cc2sc(C3COc4ccccc4C3)nc12 (centres undefined)	51	12	702	365	

Reference: ChEMBL document CHEMBL1154368, “Benzothiazoles as Rho-associated kinase (ROCK-II) inhibitors” (Bioorg Med Chem Lett, 2009)
